One data set concerns LDH enzyme. The data set can be described thus: In vitro LDH assay. It counts as biochemical. As to the method: Employing the commercial LDH enzyme (Solarbio Life Science, Beijing, China, CAS:9001-60-9, Lot. Document No. 14240222001) includes a colorimetric assay kit designed to assess the synthesized substances’ capacity to suppress the LDH enzyme, using established techniques with slight alterations. In summary, a 96-well microplate was filled with 30 μL of LDH enzyme (300 U/mL) and 70 μL of the inhibitor mixture (0.1 mM in final concentration). Following a 10 min pre-incubation process at ambient temperature, […] of NADH (0.2 mM) was introduced. Subsequently, each well received 40 μL of phosphate buffer (20 mM, pH 6.8), reaching a total volume of 250 μL, followed by a 10 min incubation of the assay plate at 28 °C. Subsequently, […] absorbance was gauged at 340 nm utilizing a SpectraMax 190 Absorbance Microplate Reader (Molecular Devices, San Jose, CA, USA). […] In the initial screening, the level of suppression by the test substances was denoted as a percentage (%). The calculation for the LDH inhibition ratio was as follows:Inhibition (%) = [(Asample − Ablank)/Acontrol] × 100%
Asample denotes the OD340 absorbance of test compound and Ablank is the OD340 absorbance for the blank. Acontrol represents the OD340 absorbance of control.

For data set [1], the system named is maximal electroshock (MES) induced seizures. Briefly: Maximal electroshock (MES) test. It counts as in vivo, mice. The conditions noted are these: Mus musculus, ip; for ED50: 95% confidence intervals in parentheses. An excerpt: (§1) Male Kunming mice (23–28 g) were maintained under controlled conditions with ad libitum access to standard pellet diet and water. Test compounds were formulated immediately prior to administration in normal saline containing 0.5% Tween-80. Our experiment was authorized by the Institutional Animal Care and Use Committee of Shaanxi University of Chinese Medicine (animal ethics certificate number: SUCMDL20210309027).
The MES test carried out following the method of Swinyard. A 60 Hz current (50 mA; 0.25 s duration) was delivered via corneal electrodes using a YSD-4G electro convulsion meter (Zhenghua Instruments, Huaibei, China, SN: ZH0056232). […] Test compounds were suspended in an identical vehicle. Protection was defined as abolition of tonic hindlimb extension.

Another data set has as its system scPTZ-induced seizures. The data set can be described thus: Pentylenetetrazole (PTZ)-induced seizure test (scPTZ). The class given is in vivo. The note with it: 100 mg/kg i.p., PTZ 85 mg/kg s.c., mice. As to the method: as §1
Seizures were induced by subcutaneous (s.c.) administration of PTZ (85 mg/kg in 1% v/v Tween-80/0.9% NaCl), 30 min after compound treatment. This dose produces clonic seizures (≥5 s duration) in 97% of naive mice. Latency to seizure onset was recorded during continuous observation.

A short description of data set [2]: Acute neurotoxicity screening (rotarod test). The class given is in vivo, mice. The conditions noted are these: male, Kunming, mouse, in vivo, ip, 30 min post-administration, 95% confidence intervals in parentheses. As to the method: as §1
(§2) Neurotoxicity was assessed via a rotarod test. Mice were trained to maintain balance on a rotating rod (diameter: 4 cm; 24 rpm). Trained animals received i.p. injections of test compounds or reference drugs. At 30 min post-administration, neurologic impairment was defined as failure to remain on the rod for 3 min (≥3 falls within the testing period). Data were used to calculate TD50 values.

The next data set relates to mice. Briefly: Acute neurotoxicity screening (rotarod test). The class given is in vivo. The conditions noted are these: i.p., 30 min post-administration, 95% confidence intervals in parentheses. As to the method:
as §1, §2

Data set [3] has as its system PTZ-induced epileptic spikes. The data set can be described thus: Electroencephalogram (EEG) after PTZ. It counts as in vivo, mice. The conditions noted are these: 100 mg/kg i.p. The source says: Mice sedated with urethane were subjected to aseptic craniotomy, involving the stereotaxic insertion of cortical screw electrodes aligned with bregma coordinates (anterior–posterior: +3.0 mm; mediolateral: ±1.5 mm) and a reference electrode (anterior–posterior: −2.0 mm; mediolateral: −1.5 mm). The electrodes were secured using dental acrylic, followed by a recovery period of 5–7 days for the animals before the instrumentation. The continuous EEG data were captured through using 8-channel bioamplifiers linked to a PowerLab 8/30 system (AD Instruments, Shanghai, China). After a 30 min acclimatization period in the recording chambers, initial activity levels were documented for 15–20 min. […] After 60 min, pentylenetetrazol (PTZ, 85 mg/kg i.p.) was administered, initiating seizure. Sampling of EEG signals occurred at a frequency of 200 Hz, utilizing a bandpass filter ranging from 0.1 to 60 Hz. Electrographic convulsions were characterized by spikes surpassing double the baseline amplitude, quantified by (1) the delay before the initial spike (seconds after PTZ); (2) the frequency of spikes (counts per 60 s period from the first spike) through established peak-detection methods.

Data set [4] deals with LDH. The data set can be described thus: Immunofluorescence staining for LDH in hippocampus. The class given is in vivo. The note with it: hippocampus CA1, PTZ model mice. As to the method: Brain samples were extracted, preserved in 4% paraformaldehyde for a day, and subsequently immersed in a 30% sucrose solution to dehydrate. Post OCT embedding, slices of brain tissue measuring 16 μm in thickness were sliced using a cryostat. Following the permeabilization using 0.5% TritonX-100 and subsequent blocking with 10% goat serum at ambient temperature to remove nonspecific staining, the tissue samples were subjected to overnight incubation at 4 °C with the primary antibody, LDHA (Proteintech (Rosemont, IL, USA), Cat No. 19987-1-AP, Lot: 00106920, rabbit anti-rat 1:200). On the next day, the slides underwent incubation using a secondary antibody. The slides underwent counterstaining using DAPI. […] slices were examined and visualized utilizing the VS200-BU Slide Scanner (Olympus Corporation, Tokyo, Japan).

Data set [5] deals with neurons in CA1 and CA3 regions of the hippocampus. Briefly: Silver staining of hippocampal tissue. The class given is in vivo. The conditions noted are these: PTZ model mice, compared with PTZ group. Here is the method: Following the creation of the PTZ model, a modified version of the silver impregnation staining technique was applied for silver staining, enabling the observation of changes in neuronal fibers and synapses throughout diseases. Brain tissue slices from each mouse, encased in paraffin, underwent deparaffinization using xylene and absolute ethanol, followed by a treatment in acidic formaldehyde, and then incubation in a glycine–silver mixture. Following the application of a reducing solution for staining, the samples were analyzed using an optical microscope. Against a yellow backdrop, nerve cells’ axons, dendrites, collagen fibers, and neurofibrillary tangles were colored in dark brown or black.

Data set [6] deals with LDH. The conditions noted are these: original ligand of the LDH co-crystal complex; cited from earlier work.
Setting [7] is: 100 mg/kg i.p., mice, 0.5 h, read-out: MES model, protected mice/total mice, 0.5 h (converted).
Setting [8] is: 100 mg/kg i.p., mice, 1 h, read-out: MES model, protected mice/total mice, 1 h (converted).
The mark [9] stands for this setting: 100 mg/kg i.p., mice, 2 h, read-out: MES model, protected mice/total mice, 2 h (converted).
[10] abbreviates: 100 mg/kg i.p., mice, 3 h, read-out: MES model, protected mice/total mice, 3 h (converted).

Several values for one entry are separate records, joined by “and”; a condition that tells them apart may be missing. Identical values can stand only once. Like-named read-outs stand apart in the source and are kept apart here.

For the molecule `C/C=C/c1ccc(OC(=O)CCCN2CCN(C(=O)/C=C/c3cc(OC)c(OC)c(OC)c3)CC2)c(OC)c1` [A3, methoxy-4-((E)-prop-1-en-1-yl)phenyl 4-(4-((E)-3-(3,4,5-trimethoxyphenyl)acryloyl)piperazin-1-yl)butanoate], in the data set on LDH enzyme, the “LDH Inhibition Ratio (0.1 mM)” value amounted to 37.6 ± 8.1%. Further, the responders at 100 mg/kg in data set [1] (setting [7]) is 100%; in data set [1] (setting [8]) it was 75%; in data set [1] (setting [9]), 50%; in data set [1] (setting [10]), 25%. Moreover, the ED50 in data set [1] (mice) stood at 73.3 mg/kg. Also, the “SCPTZ Latent Time (100 mg/kg, s)” value with scPTZ-induced seizures was 222.0 ± 14.7 s. The “SCPTZ Protective Ratio (100 mg/kg)” value with scPTZ-induced seizures is on record as 1/4. In addition, the TD50 at 30 min in [2] was 443 mg/kg. In the data set on mice, the TD50 result was “weak neurotoxicity”.

Turning to `COc1cc(/C=C/C(=O)N2CCN(CCCC(=O)N3CCN(C(c4ccc(F)cc4)c4ccc(F)cc4)CC3)CC2)cc(OC)c1OC` [A9, (E)-1-(4-(bis(4-fluorophenyl)methyl)piperazin-1-yl)-4-(4-(3-(3,4,5-trimethoxyphenyl)acryloyl)piperazin-1-yl)butan-1-one], the responders at 100 mg/kg was 100% in [1] (setting [7]), 75% in [1] (setting [8]), 50% in data set [1] (setting [9]) and 0% in [1] (setting [10]). Further, the ED50 in data set [1] (mice) is 37.5 mg/kg. For the same molecule, the “SCPTZ Latent Time (100 mg/kg, s)” value in the data set on scPTZ-induced seizures was 204.5 ± 12.6 s. Further, the “SCPTZ Protective Ratio (100 mg/kg)” value with scPTZ-induced seizures was 1/4. Further, the TD50 at 30 min in [2] turned out to be 305 mg/kg.

As for `COc1cc(/C=C/C(=O)N2CCN(CCCC(=O)N3CCN(c4cccc(Cl)c4Cl)CC3)CC2)cc(OC)c1OC` [A12, (E)-1-(4-(2,3-dichlorophenyl)piperazin-1-yl)-4-(4-(3-(3,4,5-trimethoxyphenyl)acryloyl)piperazin-1-yl)butan-1-one], the “LDH Inhibition Ratio (0.1 mM)” value in the data set with LDH enzyme is given as 41.9 ± 9.2%. Moreover, the responders at 100 mg/kg is 100% in data set [1] (setting [7]), 75% in data set [1] (setting [8]), 75% in data set [1] (setting [9]) and 25% in data set [1] (setting [10]). The ED50 in [1] (mice) stood at 54.7 mg/kg. The “SCPTZ Latent Time (100 mg/kg, s)” value with scPTZ-induced seizures came out at 161.5 ± 24.0 s. Further, the “SCPTZ Protective Ratio (100 mg/kg)” value in the data set on scPTZ-induced seizures is on record as 0/4. Moreover, the TD50 at 30 min in [2] is 284 mg/kg.

`COc1cc(/C=C/C(=O)N2CCN(CCCC(=O)N3CCN(c4ccc(C(F)(F)F)cc4)CC3)CC2)cc(OC)c1OC` [A14, (E)-1-(4-(4-(trifluoromethyl)phenyl)piperazin-1-yl)-4-(4-(3-(3,4,5-trimethoxyphenyl)acryloyl)piperazin-1-yl)butan-1-one]: the “LDH Inhibition Ratio (0.1 mM)” value in the data set on LDH enzyme was 42.6 ± 7.3%. In addition, the responders at 100 mg/kg in data set [1] (setting [7]) was 100%; in data set [1] (setting [8]), 100%; in data set [1] (setting [9]) it was 75%; in data set [1] (setting [10]), 25%. In addition, the ED50 in data set [1] (mice) amounted to 52.4 mg/kg. Further, in the data set with scPTZ-induced seizures, the “SCPTZ Latent Time (100 mg/kg, s)” value was determined as 233.5 ± 18.3 s. Moreover, in the data set on scPTZ-induced seizures, the “SCPTZ Protective Ratio (100 mg/kg)” value is given as 2/4. Also, in data set [2], the TD50 at 30 min is 358 mg/kg.

Turning to `COc1cc(/C=C/C(=O)N2CCN(C(=O)CCC(=O)N3CCN(C(c4ccc(F)cc4)c4ccc(F)cc4)CC3)CC2)cc(OC)c1OC` [B9, (E)-1-(4-(bis(4-fluorophenyl)methyl)piperazin-1-yl)-4-(4-(3-(3,4,5-trimethoxyphenyl)acryloyl)piperazin-1-yl)butane-1,4-dione], the responders at 100 mg/kg in data set [1] (0.5 h, read-out: MES model, protected mice/total mice, 0.5 h) is 100%; in data set [1] (1 h, read-out: MES model, protected mice/total mice, 1 h) it was 75%; in [1] (2 h, read-out: MES model, protected mice/total mice, 2 h), 25%; in [1] (3 h, read-out: MES model, protected mice/total mice, 3 h), 0%. Also, in data set [1] (mice), the ED50 was 23.6 mg/kg. In addition, in [3] (PTZ 85 mg/kg i.p. after 60 min), the “latency to the first PTZ-induced epileptic spike (EEG)” value was “extended”. Further, the “spike frequency within 60 s post-initial spike (EEG)” value in data set [3] (compared to PTZ controls) is on record as “significantly reduced”. The LDH immunolabelling intensity entry in the data set on LDH [4] is “lower than the values found in the PTZ group”. In the data set on scPTZ-induced seizures, the “SCPTZ Latent Time (100 mg/kg, s)” value was 274.3 s and 274.3 ± 17.2 s. Also, in the data set with scPTZ-induced seizures, the “SCPTZ Protective Ratio (100 mg/kg)” value was 3/4. For the same molecule, the “silver staining, neurons in hippocampal CA1 and CA3” value in [5] was “alleviated symptoms”. The TD50 at 30 min in [2] amounted to 235 mg/kg.

Take `COc1cc(/C=C/C(=O)N2CCN(C(=O)CCC(=O)N3CCN(c4cccc(Cl)c4Cl)CC3)CC2)cc(OC)c1OC` [B12, (E)-1-(4-(2,3-dichlorophenyl)piperazin-1-yl)-4-(4-(3-(3,4,5-trimethoxyphenyl)acryloyl)piperazin-1-yl)butane-1,4-dione]: the “LDH Inhibition Ratio (0.1 mM)” value with LDH enzyme worked out at 44.3 ± 6.5%. For the same molecule, the responders at 100 mg/kg was 100% in data set [1] (setting [7]), 75% in [1] (setting [8]), 25% in data set [1] (setting [9]) and 25% in data set [1] (setting [10]). The ED50 in data set [1] (mice) worked out at 60.3 mg/kg. In addition, the “SCPTZ Latent Time (100 mg/kg, s)” value in the data set with scPTZ-induced seizures turned out to be 230.3 ± 17.4 s. In the data set on scPTZ-induced seizures, the “SCPTZ Protective Ratio (100 mg/kg)” value is on record as 1/4. The TD50 at 30 min in data set [2] stood at 417 mg/kg.

On to `O=C1N[C@](c2ccc(N3CCOCC3)cc2)(c2ccsc2)CC(O)=C1Sc1ccccc1Cl` [GEN-140], for which the IC50 with LDH [6] is 3 nM.

The values are drawn from paper PMC12472621, “Excavating Precursors from Herb Pairs Polygala tenuifolia and Acori tatarinowii: Synthesis and Anticonvulsant Activity Evaluation of 3,4,5-Trimethoxycinnamic Acid (TMCA) Piperazine Amide Derivatives” (Pharmaceuticals, 2025).
